Measurements taken from EP0004516A2, “Pharmaceutical compositions active on the gastro-intestinal motricity” (SCIENCE UNION ET Cie SOCIETE FRANCAISE DE RECHERCHE MEDICALE, priority 1978, dated 1979).

Experiments:
[1] = system: ulcère produit par la contrainte; assay: Restraint ulcer protection; type: in vivo, animal
[2] = system: troubles moteurs gastro-duodénaux (dyspepsie hyposthénique en rapport avec un état dépressif psychasthénique); assay: Double-blind cross-over clinical and external digestive electromyographic study versus placebo (Exemple IV); type: in vivo, humaine
Protocol: Effet normalisateur des compositions à base d'acide 7-[(3-chloro 6-methyl 5,5-dioxo 6,11-dihydrodibenzo (c,f) thiazepin 1,2-11-yl) amino] heptanoique sur les troubles moteurs gastro-duodénaux en clinique humaine.
Evaluer l'efficacité du principe actif dans trois posologies différentes : • .
Les malades ont été divisés en deux groupes de 12 sujets • . Un 1er groupe de 12 cas a reçu successivement et en cross- over 1 comprimé par jour de 12,5mg et de 25mg de PA. (Un malade de ce groupe a abandonné le traitement) • . Un 2ème groupe de 12 cas a reçu successivement et en cross- over 2 comprimés par jour, soit 2 x 12.
Chaque sujet avait au minimum : • 1. Un syndrome dyspeptique hyposténique, avec • - ballonnements • - pesanteur • - somnolence post-prandiale • - brûlures et / ou douleurs épigastriques • - états nauséeux • 2. Ln état dépressif psycnasténique, avec • - dépression • - inhibition psycho-motrice • - asthénie • - anxiété psychique et / ou somatisée • - troubles du sommeil (difficulté à l'endormissement ou réveil précoce) • 3. Un électromyogramme digestif externe pathologique, avec un retard d'apparition des ondes gastriques après le repas (d'au moins 2 heures).
• . Selon la gravité clinique, de 0 à 3 • . Pour l'électromyogramme digestif, chez un sujet normal, les ondes gastriques apparaissent dès l'ingestion d'un repas équilibré et persistent pendant 5 heures en moyenne. Cette situation était côtée 0.
Chez le dyspeptique hyposténique, il existe une absence d'ondes gastriques dans la phase post-prandiale, qui peut durer plus de 3 heures. Cette situation était côtée 2.
Si, après le traitement, la sidération diminuait, elle était côtée 1.
L'examen clinique était répété après chaque passage du produit actif, ou de placebc, soit 5 fois par milade.
En ce qui concerne les tracés EMG, nous avions prévu quatre enregistrements par sujet : avant traitement, après chaque passage de Principe Actif, et après le dernier passage Placebo.

[3] = system: musculature lisse tube digestif; assay: Pharmacological studies: antispasmodic action and restoration of digestive smooth muscle motility
fibre lisse = assay: Anti-serotonin action shown directly on smooth fibre
[4] = 1 x 25 mg/jour, 15 jours, Groupe I, 11 cas
[5] = 1 x 12,5 mg/jour, 15 jours, Groupe I, 11 cas
[6] = 2 x 25mg/jour, 15 jours, Groupe II, 12 cas
[7] = 2 x 12,5mg/jour, 15 jours, Groupe II, 12 cas

## CN1c2ccccc2C(NCCCCCCC(=O)O)c2ccc(Cl)cc2S1(=O)=O (racemic) [principe actif, acide 7-[(3-chloro 6-méthyl 5,5-dioxo 6,11-dihydrodibenzo (c,f)thiazepin 1,2-11-yl)amino] heptanoique]
[1]; accompanying the protective effect
  effet anti-secrétoire: ne s'accompagne pas d'effet anti-secrétoire
[1]; in vivo
  protection contre l'ulcère produit par la contrainte: protégeait l'animal contre l'ulcère produit par la contrainte
[2]; [4]
  absence d'effet: 18,2%
  très bon effet thérapeutique global: 81,8%
[2]; [5]
  activité moyenne: 54,6%
  bonne activité (très nette amélioration de l'ensemble des symptômes digestifs, psychiques, ainsi que des tracés EMG externes): 45,4%
[2]; [6]
  activité bonne: 83,3%
  activité moyenne: 16,6%
[2]; [7]
  Bon effet thérapeutique global: 66,6%
  effet moyen: 33,3%
[2]; 12,5mg, 25mg et 50mg, both groups
  activité globale par rapport au placebo: toujours été nettement supérieur au placebo
[3]
  action antispasmodique: importante
  restauration de la motricité (atonie de la musculature lisse): capables de restaurer une motricité constante et bien coordonnée
Fibre lisse
  action anti sérotonine: très importante
